Source: ChEMBL document CHEMBL6103618, “Discovery of Novel Oxazolo[4,3-f]purine Derivatives as Antitumor Agents through PPIA Interaction” (J Med Chem, 2025)

Legend:
HCT-116 = assay: Antiproliferative activity against human HCT-116 cells assessed as inhibition of cell viability incubated for 48 hrs by CCK8 assay; format: functional, cell-based; conditions: HCT-116, 48 h
HeLa = assay: Antiproliferative activity against human HeLa cells assessed as inhibition of cell viability incubated for 48 hrs by CCK8 assay; format: functional, cell-based

Row | IC50 (HCT-116) [µM] | IC50 (HeLa) [µM] | SMILES
1 | > 50 | > 50 | CCOC(=O)/C=C\N1c2nc(Cl)nc(Cl)c2N2C(c3ccccc3)OC(C(=O)OCC)(C(=O)OCC)C12 (stereo unspecified)
2 | 0.24 | 0.74 | C=C(C(=O)OC)N1c2nc(Cl)nc(Cl)c2N2[C@@H](c3ccccc3F)OC(C(=O)OCC)(C(=O)OCC)[C@H]12
3 | 0.65 | 0.47 | C=C(C(=O)OC)N1c2nc(Cl)nc(Cl)c2N2[C@H](c3ccccc3F)OC(C(=O)OCC)(C(=O)OCC)[C@@H]12
4 | 4.33 | 6.52 | CCOC(=O)/C=C/N1c2nc(Cl)nc(Cl)c2N2C(c3cccc([N+](=O)[O-])c3)OC(C(=O)OCC)(C(=O)OCC)C12 (racemic)
5 | 15.8 | > 50 | CCOC(=O)/C=C/N1c2nc(Cl)nc(Cl)c2N2C(c3ccc(I)cc3)OC(C(=O)OCC)(C(=O)OCC)C12 (racemic)
6 | 3.73 | 10.2 | CCOC(=O)/C=C/N1c2nc(Cl)nc(Cl)c2N2C(c3ccccc3I)OC(C(=O)OCC)(C(=O)OCC)C12 (racemic)
7 | 7.92 | 11.7 | CCOC(=O)/C=C/N1c2nc(Cl)nc(Cl)c2N2C(c3cccc(Br)c3)OC(C(=O)OCC)(C(=O)OCC)C12 (racemic)
8 | 11.9 | 6.57 | CCOC(=O)/C=C/N1c2nc(Cl)nc(Cl)c2N2C(c3ccccc3)OC(C(=O)OCC)C12 (racemic)
9 | > 50 | > 50 | CCOC(=O)C1(C(=O)OCC)OC(c2ccccc2)N2c3c(Cl)nc(Cl)nc3N(/C=C/C(=O)OC(C)(C)C)C21 (racemic)
10 | 10.9 | 16.4 | CCOC(=O)/C=C/N1c2nc(Cl)nc(Cl)c2N2C(c3ccc(Cl)c(Cl)c3)OC(C(=O)OCC)(C(=O)OCC)C12 (racemic)
11 | > 50 | > 50 | CCCSc1nc(Cl)nc2c1N1C(c3ccccc3)OC(C(=O)OCC)(C(=O)OCC)C1N2/C=C/C(=O)OCC (racemic)
12 | > 50 | > 50 | CCOC(=O)/C=C/N1c2nc(Cl)nc(Cl)c2N2C(c3cccc4ccccc34)OC(C(=O)OCC)(C(=O)OCC)C12 (racemic)
13 | > 50 | > 50 | CCOC(=O)C1(C(=O)OCC)OC(c2ccccc2)N2c3c(Cl)nc(Cl)nc3N(/C=C/C(=O)OCc3ccccc3)C21 (racemic)
14 | > 50 | > 50 | CCOC(=O)/C=C/N1c2nc(Cl)nc(N)c2N2C(c3ccccc3)OC(C(=O)OCC)(C(=O)OCC)C12 (racemic)
15 | > 50 | > 50 | CCOC(=O)/C=C/N1c2nc(Cl)nc(Cl)c2N2C(c3ccccc3)OC(C(=O)OCc3ccccc3)(C(=O)OCc3ccccc3)C12 (racemic)
16 | > 50 | > 50 | CCOC(=O)/C=C/N1c2ncncc2N2C(c3ccccc3)OC(C(=O)OCC)(C(=O)OCC)C12 (racemic)
17 | 2.19 | 2.12 | CCOC(=O)/C=C/N1c2nc(Cl)nc(Cl)c2N2C(c3ccccc3F)OC(C(=O)OCC)(C(=O)OCC)C12 (racemic)
18 | 13.8 | 12.3 | CCOC(=O)/C=C/N1c2nc(Cl)nc(Cl)c2N2C(c3ccccc3)OC(C(=O)OCC)(C(=O)OCC)C12 (racemic)
19 | 4.94 | 9.73 | CCOC(=O)/C=C/N1c2nc(Cl)nc(Cl)c2N2C(c3ccc([N+](=O)[O-])cc3)OC(C(=O)OCC)(C(=O)OCC)C12 (racemic)
20 | 18.6 | 18.3 | CCOC(=O)/C=C/N1c2nc(F)nc(Cl)c2N2C(c3ccccc3)OC(C(=O)OCC)(C(=O)OCC)C12 (racemic)
21 | > 50 | > 50 | CCCSc1ncnc2c1N1C(c3ccccc3)OC(C(=O)OCC)(C(=O)OCC)C1N2/C=C/C(=O)OCC (racemic)
22 | 2.7 | 3.55 | CCOC(=O)/C=C/N1c2nc(Cl)nc(Cl)c2N2C(c3ccccc3Cl)OC(C(=O)OCC)(C(=O)OCC)C12 (racemic)

Row | IC50 (HCT-116) [µM] | IC50 (HeLa) [µM] | SMILES
23 | 9.32 | 13.7 | CCOC(=O)/C=C/N1c2nc(Cl)nc(Cl)c2N2C(c3ccc(Br)cc3)OC(C(=O)OCC)(C(=O)OCC)C12 (racemic)
24 | 6.97 | 7.16 | CCOC(=O)/C=C/N1c2nc(Cl)nc(Cl)c2N2C(c3ccc(F)cc3)OC(C(=O)OCC)(C(=O)OCC)C12 (racemic)
25 | > 50 | > 50 | CCOC(=O)/C=C/N1c2nc(Cl)nc(Cl)c2N2C(c3ccc4ccccc4c3)OC(C(=O)OCC)(C(=O)OCC)C12 (racemic)
26 | > 50 | > 50 | CCOC(=O)/C=C/N1c2nc(Cl)nc(Cl)c2N2C(c3cccs3)OC(C(=O)OCC)(C(=O)OCC)C12 (racemic)
27 | 3.41 | 3.15 | CCOC(=O)/C=C/N1c2nc(Cl)nc(Cl)c2N2C(c3ccccc3Br)OC(C(=O)OCC)(C(=O)OCC)C12 (racemic)
28 | 14.2 | 11.2 | CCOC(=O)C1(C(=O)OCC)OC(c2ccccc2)N2c3c(Cl)nc(Cl)nc3N(/C=C/C(=O)OC)C21 (racemic)
29 | 7.14 | > 50 | CCOC(=O)/C=C/N1c2nc(Cl)nc(Cl)c2N2C(c3ccc(Cl)cc3)OC(C(=O)OCC)(C(=O)OCC)C12 (racemic)
30 | 7.13 | > 50 | CCOC(=O)/C=C/N1c2nc(Cl)nc(Cl)c2N2C(c3ccc(C(F)(F)F)cc3)OC(C(=O)OCC)(C(=O)OCC)C12 (racemic)
31 | > 50 | > 50 | CCOC(=O)/C=C/N1c2nc(Cl)nc(Cl)c2N2C(c3ccccc3)OC(COS(=O)(=O)c3ccc(C)cc3)(COS(=O)(=O)c3ccc(C)cc3)C12 (racemic)
32 | 5.1 | 6.72 | CCOC(=O)/C=C/N1c2nc(Cl)nc(Cl)c2N2C(c3cccc(F)c3)OC(C(=O)OCC)(C(=O)OCC)C12 (racemic)
33 | 21.7 | > 50 | CCOC(=O)/C=C/N1c2nc(Cl)nc(Cl)c2N2C(c3ccc(-c4ccccn4)cc3)OC(C(=O)OCC)(C(=O)OCC)C12 (racemic)
34 | 9.84 | 12.4 | CCOC(=O)/C=C/N1c2nc(Cl)nc(Cl)c2N2C(c3ccccc3C)OC(C(=O)OCC)(C(=O)OCC)C12 (racemic)
35 | > 50 | > 50 | CCOC(=O)/C=C/N1c2ncnc(OC)c2N2C(c3ccccc3)OC(C(=O)OCC)(C(=O)OCC)C12 (racemic)
36 | 3.56 | 10 | CCOC(=O)/C=C/N1c2nc(Cl)nc(Cl)c2N2C(c3cccc(C(F)(F)F)c3)OC(C(=O)OCC)(C(=O)OCC)C12 (racemic)
37 | 6.93 | 12.6 | CCOC(=O)/C=C/N1c2nc(Cl)nc(Cl)c2N2C(c3ccccc3)OC(C(=O)OC)(C(=O)OC)C12 (racemic)
38 | 3.29 | 4.95 | CCOC(=O)/C=C/N1c2nc(Cl)nc(Cl)c2N2C(c3ccccc3C(F)(F)F)OC(C(=O)OCC)(C(=O)OCC)C12 (racemic)
39 | 7.36 | 16.6 | CCOC(=O)/C=C/N1c2nc(Cl)nc(Cl)c2N2C(c3cccc(Cl)c3)OC(C(=O)OCC)(C(=O)OCC)C12 (racemic)
40 | > 50 | > 50 | CCOC(=O)/C=C/N1c2nc(Cl)nc(OC)c2N2C(c3ccccc3)OC(C(=O)OCC)(C(=O)OCC)C12 (racemic)
41 | 34 | > 50 | CCOC(=O)/C=C/N1c2ncnc(Cl)c2N2C(c3ccccc3)OC(C(=O)OCC)(C(=O)OCC)C12 (racemic)
42 | 11.2 | 15.4 | CCOC(=O)/C=C/N1c2nc(Cl)nc(Cl)c2N2C(c3ccccc3)OC(CO)(CO)C12 (racemic)
43 | 11.4 | 18.3 | CCOC(=O)/C=C/N1c2nc(Cl)nc(Cl)c2N2C(c3ccccc3)OC(CO)C12 (racemic)
